Paper PMC6125784 (Cell chemical biology, 2018)

Molecular target: T1, CobL (Rhodobacter capsulatus, UniProt D5AV04)
T1 sequence (D5AV04 1-396): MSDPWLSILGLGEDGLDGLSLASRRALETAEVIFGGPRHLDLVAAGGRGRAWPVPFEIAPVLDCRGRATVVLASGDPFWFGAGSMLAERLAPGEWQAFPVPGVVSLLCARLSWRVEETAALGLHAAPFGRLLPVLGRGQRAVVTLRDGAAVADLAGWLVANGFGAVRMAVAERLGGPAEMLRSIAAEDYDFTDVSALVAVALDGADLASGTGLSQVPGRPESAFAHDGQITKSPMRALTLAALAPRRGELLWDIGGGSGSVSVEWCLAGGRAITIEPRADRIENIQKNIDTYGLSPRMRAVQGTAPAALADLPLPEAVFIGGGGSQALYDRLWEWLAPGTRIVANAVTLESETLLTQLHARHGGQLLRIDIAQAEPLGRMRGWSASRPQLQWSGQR
Assay: C5 alkylation coupled to CobH, UV-visible and HPLC-MS
Assay type: biochemical
Details: CobH 30 uM, pH 8.0, 28°C

SMILES	C5 alkylation coupled to CobH, UV-visible and HPLC-MS (precorrin-7 60 uM)	C5 alkylation coupled to CobH, UV-visible and HPLC-MS (allyl-SAM 170 uM)
C=CC[S+](CC[C@H](N)C(=O)O)C[C@H]1O[C@@H](n2cnc3c(N)ncnc32)[C@H](O)[C@@H]1O (some centres unmarked) [allyl-SAM]	When precorrin-7 was incubated with CobL, CobH, and allyl-SAM the color	–
CC1=C(CCC(=O)O)C2=N[C@@]1(C)CC1=C(CCC(=O)O)[C@](C)(CC(=O)O)C(=N1)/C=C1\N[C@@](C)([C@@H]3N=C(C2C)[C@](C)(CCC(=O)O)[C@H]3CC(=O)O)[C@@](C)(CC(=O)O)[C@@H]1CCC(=O)O (some centres unmarked) [precorrin-7]	–	When precorrin-7 was incubated with CobL, CobH, and allyl-SAM the color
